Reference: US20240189287A1, “PERIPHERALLY RESTRICTED CB1 RECEPTOR BLOCKERS AND USES THEREOF” (BIONANOSIM (BNS) LTD, priority 2021, published 2024)
Where two headings read alike, the source gives them in different places.

Assays:
[1] = system: Salmonella typhimurium (TA98, TA100)
CB1 receptor [2] = biological target: T1, CB1 receptor (Mus musculus (Mouse), UniProt P47746); assay: CB1 receptor radioligand binding assay, [3H]CP-55,940 displacement, mouse brain membranes; settings: mouse (m) CB1 receptor; read-out: CB1R Ki (nM) (m)
T1 sequence (P47746 whole entry): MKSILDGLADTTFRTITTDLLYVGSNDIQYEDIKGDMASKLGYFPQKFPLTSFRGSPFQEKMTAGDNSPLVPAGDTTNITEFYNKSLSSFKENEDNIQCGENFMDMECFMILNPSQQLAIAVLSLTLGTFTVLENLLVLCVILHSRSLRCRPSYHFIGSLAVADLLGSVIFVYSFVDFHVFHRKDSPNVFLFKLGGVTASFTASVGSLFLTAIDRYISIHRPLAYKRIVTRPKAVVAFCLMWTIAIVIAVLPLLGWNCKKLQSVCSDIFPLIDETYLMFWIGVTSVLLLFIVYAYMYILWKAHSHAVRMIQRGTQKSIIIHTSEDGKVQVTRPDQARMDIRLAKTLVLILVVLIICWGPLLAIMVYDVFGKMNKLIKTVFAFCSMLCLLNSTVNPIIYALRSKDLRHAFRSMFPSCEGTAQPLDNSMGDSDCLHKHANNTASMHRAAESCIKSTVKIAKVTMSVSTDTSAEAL
Procedure: (§1) Radioligand binding assays: Binding affinity was determined by a radioligand binding assay. The different BB8-conjugates binding to CB1 and CB2 receptors was assessed in competition displacement assays using [^3H]CP-55.940 as the radioligand and crude membranes from mouse brain for CB1 receptor and human kidney cells for CB2 receptor.
CB1 receptor binding assay: Mouse brain membranes were used as the source material for CB1 receptors. The displacement of specifically bound tritiated CP-55.940 from these membranes using a standard filtration assay was used to determine the Ki values for the test compounds. Briefly. 20 μg of protein was incubated for 1 h at 30° C. in the presence of 0.5 nM [^3H]CP-55,940 and various concentrations (10^−5M-10^−11M) of test compound/control, final volume of 1 mL. The incubation was terminated by rapid filtration and washing, and the amount of specifically bound [^3H]CP-55,940 was determined. Briefly, membranes with bound [^3H]CP-55,940 were separated and washed from free ligand by vacuum filtration, adsorbing the membrane onto a Whatman glass microfiber filter paper ([…], Cat #1821271). Finally, the Whatman filter paper with adsorbed membranes was cut and placed in scintillation liquid (Ultima Gold) for 1 h at 25° C. followed by a β counter reading of bound [^3H]CP-55,940 radioligand. All data were in triplicates with Ki values determined using GraphPad Prism 7.02 analysis software. […] In some cases, membranes from human source were used to determine CB1 receptor binding affinity.

CB2 receptor = CB2 receptor (Homo sapiens (Human), UniProt P34972); assay: CB2 receptor radioligand binding assay, [3H]CP-55,940 displacement, human kidney membranes; settings: for Ki: read-out: hCB2R Ki
CB2 receptor, sequence (P34972 whole entry): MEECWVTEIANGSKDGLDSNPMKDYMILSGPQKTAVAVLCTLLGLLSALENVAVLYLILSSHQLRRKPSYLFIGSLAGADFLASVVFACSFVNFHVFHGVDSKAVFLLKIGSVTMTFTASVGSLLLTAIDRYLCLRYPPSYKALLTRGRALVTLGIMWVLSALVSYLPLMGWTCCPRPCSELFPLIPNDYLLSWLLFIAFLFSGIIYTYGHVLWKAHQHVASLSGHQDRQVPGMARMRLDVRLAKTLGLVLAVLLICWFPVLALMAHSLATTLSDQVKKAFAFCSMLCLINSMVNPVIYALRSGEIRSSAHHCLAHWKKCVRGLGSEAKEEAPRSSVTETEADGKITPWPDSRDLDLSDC
Procedure: as §1
CB2 receptor binding assay: Human kidney membranes were used as the source material for CB2 receptors. The displacement of specifically bound tritiated CP-55,940 from these membranes using a standard filtration assay was used to determine the Ki values for the test compounds. Briefly, 1.25 μg of protein was incubated for 1.5 h at 30° C. in the presence of 0.5 nM [^3H]CP-55,940 and various concentrations (10^−5M-10^−11M) of test compound/control, final volume of 1 mL. The incubation was terminated by rapid filtration and washing, and the amount of specifically bound [^3H]CP-55,940 was determined. Briefly, membranes with bound [^3H]CP-55,940 were separated and washed from free ligand by vacuum filtration, adsorbing the membrane onto a Whatman glass microfiber filter paper ([…], Cat #1821271). Finally, the Whatman filter paper with adsorbed membranes was cut and placed in scintillation liquid (Ultima Gold) for 1 h at 25° C. followed by a β counter reading of bound [^3H]CP-55,940 radioligand. All data were in triplicates with Ki values determined using GraphPad Prism 7.02 analysis software.

CB1 receptor [3] = biological target: T1, CB1 receptor; assay: [35S]GTPγS binding assay for CB1 receptor, mouse brain membranes; assay type: biochemical; settings: nature of binding: agonist/antagonist/inverse agonist
Procedure: For CB1 receptor-mouse brains were dissected and P2 membranes prepared and resuspended at ˜2 μg protein/μL in 1 ml assay buffer (50 mM Tris HCl, 9 mM MgCl2, 0.2 mM EDTA, 150 mM NaCl; pH 7.4). Ligand-stimulated [^35S]GTPγS binding was assayed as described previously (Tam et al., JCI 2010). Briefly, membranes (10 μg protein) were incubated in assay buffer containing 100 μM GDP, 0.05 nM [^35S]GTPγS, test compounds at various concentrations (CP55940/Rimonabant as controls and test compounds for BB8 conjugates), and 1.4 mg/mL fatty acid-free BSA in siliconized glass tubes. Membranes with bound ligand ([^35S]GTPγS) were separated from free ligand by vacuum filtration and were analyzed using β counter as described above. Non-specific binding was determined using 10 μM GTPS (cold GTP). Basal binding was assayed in the absence of the tested compound and in the presence of GDP.

MDR1-MDCKII cells = assay: MDR1-MDCK II cell permeation assay (bi-directional permeability, P-gp efflux); assay type: in vitro ADME
Procedure: (§2) Test and reference compounds were diluted with transport buffer (HBSS with 10 mM Hepes, pH 7.4) from stock solution to a concentration of 2 μM (DMSO<1%) and applied to the apical or basolateral side of the cell monolayer. Permeation of the test compounds from A to B direction or B to A direction was determined in duplicate with/without P-gp inhibitor (GF120918, 10 μM). […] The plate was incubated for 2.5 hours in CO2 incubator at 37±1° C., with 5% CO2 at saturated humidity without shaking. In addition, the efflux ratio of each compound was also determined. Test and reference compounds were quantified by LC-MS/MS analysis based on the peak area ratio of analyte/IS.
(§3) The in vitro bi-directional permeability across MDR1-MDCKII cells including P-glycoprotein (Pgp, ABCB1) efflux in the presence and absence of a P-gp inhibitor is an indicator as to the tendency of an orally administered compound to penetrate the brain.

P-gp (MDR1, ABCB1) = assay: as above; assay type: in vitro ADME; settings: dog; for Papp at 2.5 h, 2 μM: A to B
Procedure: as §2, §3

HepG2 Cells = assay: Cell Viability Assay in HepG2 Cells at 72 h; assay type: cell-based, human; settings: HepG2, 72 h
Procedure: The liver plays a central role in transforming and clearing chemicals, and therefore is susceptible to toxicity of these agents. BNS808, BNS822 and other selected compounds were tested in the HepG2 assay using […] to evaluate cytotoxicity.

[4] = MDCK-MDR1, pH 7.4, with GF120918, 10 μM, efflux ratio in the presence of P-gp inhibitor GF120918, read-out: MDR1 B:A/A:B (+P-gp inhibitor)
[5] = MDCK-MDR1, pH 7.4, efflux ratio, without P-gp inhibitor, read-out: MDR1 B:A/A:B

SMILES | Ki (CB1 receptor [2]) | Ki (CB2 receptor) | mCB1R GTPγ[^35S] (activity) (CB1 receptor [3]) | further results
Nc1ccc2cc3ccccc3cc2c1 [2-Aminoanthracene, reference compound] |  |  |  | AMES result (positive/negative) ([1]; TA98, S9 yes): positive; AMES result (positive/negative) ([1]; TA100, S9 yes): positive
O=[N+]([O-])c1ccc2c(c1)Cc1ccccc1-2 [2-Nitroflurene, reference compound] |  |  |  | AMES result (positive/negative) ([1]; TA98, S9 no): positive
O=C(NC1CCCOc2c1nn(-c1ccccc1Cl)c2-c1ccc(Cl)cc1)c1ccccn1 (stereo not drawn) [BNS810, N-[2-(2-chlorophenyl)-3-(4-chlorophenyl)-5,6,7,8-tetrahydrooxepino[3,2-c]pyrazol-8-yl]pyridine-2-carboxamide] | 64.5 nM | 988 nM | Antagonist | 
O=C(NC1CCCOc2c1nn(-c1ccccc1Cl)c2-c1ccc(Cl)cc1)c1ccncn1 (stereo not drawn) [BNS811, N-[2-(2-chlorophenyl)-3-(4-chlorophenyl)-5,6,7,8-tetrahydrooxepino[3,2-c]pyrazol-8-yl]pyrimidine-4-carboxamide] | 65.6 nM | 963 nM | Antagonist | 
O=C(NC1CCCOc2c1nn(-c1ccccc1Cl)c2-c1ccc(Cl)cc1)c1ccncc1 (stereo not drawn) [BNS812, N-[2-(2-chlorophenyl)-3-(4-chlorophenyl)-5,6,7,8-tetrahydrooxepino[3,2-c]pyrazol-8-yl]pyridine-4-carboxamide] | 16.3 nM | 1300 nM | Antagonist | 
CNC(=O)NC1CCCOc2c1nn(-c1ccccc1Cl)c2-c1ccc(Cl)cc1 (stereo not drawn) [BNS813, 1-[2-(2-chlorophenyl)-3-(4-chlorophenyl)-5,6,7,8-tetrahydrooxepino[3,2-c]pyrazol-8-yl]-3-methyl-urea] | 1130 nM |  |  | 
CS(=O)(=O)N1CCC(C(=O)NC2CCCOc3c2nn(-c2ccccc2Cl)c3-c2ccc(Cl)cc2)CC1 (stereo not drawn) [BNS815, N-[2-(2-chlorophenyl)-3-(4-chlorophenyl)-5,6,7,8-tetrahydrooxepino[3,2-c]pyrazol-8-yl]-1-methylsulfonyl-piperidine-4-carboxamide] | 18 nM | 6310 nM | Antagonist | P-gp substrate (MDR1-MDCKII cells): P-gp substrates and Yes; Rank Papp (MDR1-MDCKII cells): High; efflux ratio at 2.5 h, 2 μM (P-gp (MDR1, ABCB1); [4]): 0.63; Papp at 2.5 h, 2 μM (P-gp (MDR1, ABCB1); MDCK-MDR1, pH 7.4): 10.1 ×10⁻⁶ cm/s; IC50 (HepG2 Cells; read-out: Absolute IC50): 55.9 µM
CCOC(=O)N1CCC(C(=O)NC2CCCOc3c2nn(-c2ccccc2Cl)c3-c2ccc(Cl)cc2)CC1 (stereo not drawn) [BNS816, Ethyl-4-((2-(2-chlorophenyl)-3-(4-chlorophenyl)-5,6,7,8-tetrahydro-2H-oxepino[3,2-c]pyrazol-8-yl)carbamoyl)piperidine-1-carboxylate] | 8.93 nM | 1530 nM | Inverse Agonist | P-gp substrate (MDR1-MDCKII cells): No; Rank Papp (MDR1-MDCKII cells): High; MDR1 B:A/A:B (MDR1-MDCKII cells; efflux ratio, without P-gp inhibitor): 0.77; efflux ratio at 2.5 h, 2 μM (P-gp (MDR1, ABCB1); [4]): 0.61; Papp at 2.5 h, 2 μM (P-gp (MDR1, ABCB1); MDCK-MDR1, pH 7.4): 6.99 ×10⁻⁶ cm/s
O=C(NC1CCCOc2c1nn(-c1ccccc1Cl)c2-c1ccc(Cl)cc1)C1CCN(C(=O)c2cccnc2)CC1 (stereo not drawn) [BNS817, N-[2-(2-chlorophenyl)-3-(4-chlorophenyl)-5,6,7,8-tetrahydrooxepino[3,2-c]pyrazol-8-yl]-1-(pyridine-3-carbonyl)piperidine-4-carboxamide] | 290 nM |  | Inverse Agonist | hCB2R Ki (nM) (CB2 receptor): No binding; P-gp substrate (MDR1-MDCKII cells): P-gp substrates and Yes; Rank Papp (MDR1-MDCKII cells): High; efflux ratio at 2.5 h, 2 μM (P-gp (MDR1, ABCB1); [4]): 0.64; Papp at 2.5 h, 2 μM (P-gp (MDR1, ABCB1); MDCK-MDR1, pH 7.4): 8.09 ×10⁻⁶ cm/s; efflux ratio at 2.5 h, 2 μM (P-gp (MDR1, ABCB1); [5]): 1.92
CNCC(=O)NC1CCCOc2c1nn(-c1ccccc1Cl)c2-c1ccc(Cl)cc1 (stereo not drawn) [BNS819, N-[2-(2-chlorophenyl)-3-(4-chlorophenyl)-5,6,7,8-tetrahydrooxepino[3,2-c]pyrazol-8-yl]-2-(methylamino)acetamide] | 922 nM |  |  | 
O=C(NC1CCCOc2c1nn(-c1ccccc1Cl)c2-c1ccc(Cl)cc1)[C@H]1CCCN1 (stereo partly drawn) [BNS820, (2R)—N-[2-(2-chlorophenyl)-3-(4-chlorophenyl)-5,6,7,8-tetrahydrooxepino[3,2-c]pyrazol-8-yl]pyrrolidine-2-carboxamide] | 877 nM |  |  | 
O=C(NC1CCCOc2c1nn(-c1ccccc1Cl)c2-c1ccc(Cl)cc1)[C@@H]1CCCN1 (stereo partly drawn) [BNS821, (2S)—N-[2-(2-chlorophenyl)-3-(4-chlorophenyl)-5,6,7,8-tetrahydrooxepino[3,2-c]pyrazol-8-yl]pyrrolidine-2-carboxamide] | 1400 nM |  |  | 
CC(C)(Oc1ccc(C(=O)c2ccc(Cl)cc2)cc1)C(=O)NC1CCCOc2c1nn(-c1ccccc1Cl)c2-c1ccc(Cl)cc1 (stereo not drawn) [BNS823, 2-[4-(4-chlorobenzoyl)phenoxy]-N-[2-(2-chlorophenyl)-3-(4-chlorophenyl)-5,6,7,8-tetrahydrooxepino[3,2-c]pyrazol-8-yl]-2-methyl-propanamide] | 56.7 nM |  | Antagonist | hCB2R Ki (nM) (CB2 receptor): No binding; P-gp substrate (MDR1-MDCKII cells): No; Rank Papp (MDR1-MDCKII cells): Low; efflux ratio at 2.5 h, 2 μM (P-gp (MDR1, ABCB1); [4]): > 30.9; Papp at 2.5 h, 2 μM (P-gp (MDR1, ABCB1); MDCK-MDR1, pH 7.4): < 0.003 ×10⁻⁶ cm/s; efflux ratio at 2.5 h, 2 μM (P-gp (MDR1, ABCB1); [5]): > 27.9
CS(=O)(=O)CC(=O)N1CCC(C(=O)NC2CCCOc3c2nn(-c2ccccc2Cl)c3-c2ccc(Cl)cc2)CC1 (stereo not drawn) [BNS824, N-[2-(2-chlorophenyl)-3-(4-chlorophenyl)-5,6,7,8-tetrahydrooxepino[3,2-c]pyrazol-8-yl]-1-(2-methylsulfonylacetyl)piperidine-4-carboxamide] | 456 nM |  |  | 
O=C(NC1CCCOc2c1nn(-c1ccccc1Cl)c2-c1ccc(Cl)cc1)C1CCN(S(=O)(=O)c2ccc(Cl)cc2)CC1 (stereo not drawn) [BNS825, N-[2-(2-chlorophenyl)-3-(4-chlorophenyl)-5,6,7,8-tetrahydrooxepino[3,2-c]pyrazol-8-yl]-1-(4-chlorophenyl)sulfonyl-piperidine-4-carboxamide] | 1.6 nM | 127 nM | Antagonist | IC50 (HepG2 Cells; Homo sapiens, read-out: Relative IC50): > 100 µM
CN[C@@H]1C[C@H]2O[C@@](C)([C@@H]1OC)n1c3ccccc3c3c4c(c5c6ccccc6n2c5c31)C(=O)NC4 [Staurosporine, reference compound] |  |  |  | IC50 (HepG2 Cells; read-out: Relative IC50): 0.06 µM
